The source of these data is US20250271439A1, “PROTEOMIC SIGNATURE OF PLASMA EXTRACELLULAR VESICLES CLASSIFIES RESPONSE TO DOXORUBICIN AND CANCER” (Washington University, priority 2022, published 2025).

SMILES strings stand for the structures.

The subject of one assay is sarcoma patients. The assay is described as follows: Tumor response to doxorubicin monotherapy assessed by RECIST version 1.1 (SARC021 trial). It counts as in vivo, human. The settings on record: two cycles of 75 mg/m^2 doxorubicin, 6 weeks. How it is done: Plasma was acquired from a cohort of 40 sarcoma patients on the doxorubicin monotherapy control arm of the international, open-label, prospective, randomized, phase 3, multicenter SARC021 trial (TH CR-406)^16. SARC021 was conducted at 81 academic or community investigational sites across 13 countries, and one arm of the trial treated patients with doxorubicin alone, the standard of care. Samples were obtained from 8 different sarcoma subtypes in the cohort, including angiosarcoma (AS), epitheloid sarcoma (EPI), leiomyosarcoma (LMS), liposarcoma (LS), myxofibrosarcoma (MFS), malignant peripheral nerve sheath tumor (MPNST), rhabdomyosarcoma (PMRMS), and undifferentiated pleomorphic sarcoma (UPS). The number of patients per sarcoma subtype ranged from 1 to 13 (Table 1).
Plasma for the sarcoma cohort was acquired prior to treatment with two cycles of 75 mg/m^2 doxorubicin, and just prior to cycle 3, for a total treatment time of 6 weeks (FIG. 1A). […]
Doxorubicin treatment and plasma collection: Plasma was obtained from anonymized sarcoma patients on the TH CR-406/SARC021 clinical trial, registered with ClinicalTrials.gov as NCT01440088 and entitled “A Trial of TH-302 in Combination With Doxorubicin Versus Doxorubicin Alone to Treat Patients With Locally Advanced Unresectable or Metastatic Soft Tissue Sarcoma”^84. […] Tumor response was assessed at the end of cycle 2 using RECIST version 1.1^18. […]

The next assay relates to plasma EV proteome. The assay is described as follows: Label free quantitative proteomics of plasma EVs before versus after doxorubicin treatment. Format: in vivo, human. The conditions noted are these: SARC021 sarcoma cohort; also considering the patient's treatment sensitivity; FIG. 5A.

As to `COc1cccc2c1C(=O)c1c(O)c3c(c(O)c1C2=O)C[C@@](O)(C(=O)CO)C[C@@H]3O[C@H]1C[C@H](N)[C@H](O)[C@H](C)O1` [doxorubicin], the “sarcoma patients considered treatment resistant” value with sarcoma patients (cohort of 40 sarcoma patients) was 37.5%. The “number of sarcoma patients considered treatment resistant” value in the assay on sarcoma patients (of 40 sarcoma patients) is 15. In the assay with plasma EV proteome, the “change in EV protein abundance, plasma samples collected before and after treatment” value is listed as “no statistically significant change”.
